Results from patent publication US20060160848A1 (priority 2002, published 2006).
Like-named read-outs stand apart in the source and are kept apart here.

Legend:
mouse hepatocytes [1] = tested on: mouse hepatocytes
mice = test: Allyl alcohol hepatotoxicity in mice (plasma SDH, GPT, hepatic GSH)
mouse hepatocytes [2] = test: cells; conditions: Hepatocyte, 1 h
mouse hepatocytes [3] = tested on: mouse hepatocytes; remark: listed apart in the source
PC-12 cells = test: Allylamine cytotoxicity in PC-12 cells (MTT)
mouse hepatocytes [4] = test: Crotyl alcohol toxicity in isolated mouse hepatocytes (LDH leakage); conditions: 500 μM crotyl alcohol; for protection against crotyl alcohol toxicity by other hydrazines: 1-100 μM hydrazine, 1-3 hours
mouse liver = test: Adduct-trapping in mouse liver proteins (Western blot, immunohistochemistry); assay type: in vivo; conditions: for immunohistochemical detection of hydralazine-stabilized acrolein adducts in liver sections: 4 hours after 300 μmol/kg i.p., hydralazine given with allyl alcohol, hydrazone given alone
[5] = pH 7
[6] = Sequestering of crotonaldehyde from buffered solution at 37° C. (HPLC); conditions: equimolar scavenger, up to 30 minutes
acrolein-modified BSA = molecular target: T1, acrolein-modified BSA (Bos taurus, UniProt P02769); test: Cell-free immunoassay for adduct-breaking on acrolein-pretreated BSA; assay type: biochemical, bovine; conditions: for adduct-breaking activity (acrolein-lysine adducts in BSA): BSA pretreated with 1 mM acrolein 20 min, 50, 250 and 500 μM test compound, 30 min at 37° C.
T1 construct: a model protein (BSA, bovine serum albumin); from tissue; host or cells: bovine serum (from the protein's name only)

mouse hepatocytes [7] = conditions: 0.5 mM acrolein; 0.3 to 3 mM hydralazine
mouse hepatocytes [8] = conditions: 15 min, 3 mM hydralazine alone or 0.5 mM acrolein + 0.3 to 3 mM hydralazine
mouse hepatocytes [9] = tested on: mouse hepatocytes; remark: listed apart in the source
acrolein-premodified BSA = acrolein-premodified BSA (Bos taurus, UniProt P02769); conditions: 1 mM acrolein, then 50 to 500 μM hydralazine 30 min
[10] = molecular target: bovine pancreas ribonuclease A (Bos taurus, UniProt P61823); conditions: 3.2 mM acrolein; 0.3 to 3 mM hydralazine
[11] = hypertensive human subjects, 50 mg oral dose; cited from earlier work
mouse hepatocytes [12] = tested on: mouse hepatocytes; remark: listed apart in the source
mouse hepatocytes [13] = test: Toxicity of smoke extract in mouse hepatocytes (LDH leakage); assay type: cell-based; conditions: 50 μM smoke-derived acrolein equivalents; 25, 50 and 100 μM drug; up to 180 min
[14] = read-out: PC50 (concentration producing a 50% decrease in LDH leakage)
[15] = read-out: PC50 (concentration affording 50% reduction in cell killing)
[16] = 200 vs 100 μmol/kg hydralazine, allyl alcohol 90 mg/kg, 60 minutes
[17] = allyl alcohol 90 mg/kg i.p., 4 hours, estimated from dose-response
[18] = hydralazine 200 μmol/kg i.p., allyl alcohol 90 mg/kg

bovine pancreas ribonuclease A, sequence (P61823 27-150): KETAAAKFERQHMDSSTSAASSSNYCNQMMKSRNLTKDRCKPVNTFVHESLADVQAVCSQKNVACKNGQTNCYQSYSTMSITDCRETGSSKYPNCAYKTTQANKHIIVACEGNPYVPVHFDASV
T1 sequence (P02769 25-607): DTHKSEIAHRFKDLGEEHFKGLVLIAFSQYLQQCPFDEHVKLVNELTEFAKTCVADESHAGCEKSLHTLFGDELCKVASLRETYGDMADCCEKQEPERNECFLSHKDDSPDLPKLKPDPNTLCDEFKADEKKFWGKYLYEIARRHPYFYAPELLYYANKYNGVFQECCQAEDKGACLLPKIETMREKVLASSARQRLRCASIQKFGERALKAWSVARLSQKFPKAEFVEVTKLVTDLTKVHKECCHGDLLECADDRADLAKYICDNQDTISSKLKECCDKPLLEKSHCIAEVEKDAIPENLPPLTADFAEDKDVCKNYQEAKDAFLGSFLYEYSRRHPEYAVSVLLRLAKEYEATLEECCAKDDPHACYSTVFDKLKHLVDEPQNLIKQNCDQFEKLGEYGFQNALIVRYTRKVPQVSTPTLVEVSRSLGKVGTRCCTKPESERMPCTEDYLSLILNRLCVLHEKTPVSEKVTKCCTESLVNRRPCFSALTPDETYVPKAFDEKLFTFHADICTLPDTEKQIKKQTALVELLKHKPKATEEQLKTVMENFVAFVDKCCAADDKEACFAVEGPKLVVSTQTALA
acrolein-premodified BSA, sequence (P02769 25-607): as above

## C=CCO [allyl alcohol]
Mouse hepatocytes [1]; mouse
  cell death induced: 100%
mice; 90 mg/kg
  fatalities: no fatalities
mice; 90 mg/kg i.p., 4 hours
  decrease in hepatic GSH stores: 65%
  elevation of plasma GPT activity over controls: 24 fold
  elevation of plasma SDH activity over controls: 30 fold
mice; 100 mg/kg
  mortality: 30%

## NNc1ccccc1 [phenylhydrazine]
Mouse hepatocytes [2]; [14]
  EC50: 8 ± 0.28 µM

## Oc1ccccc1 [phenol]
Mouse hepatocytes [2]; [14]
  EC50: 48 ± 12 µM

## CCCC(C(=O)OCCN(CC)CC)(c1ccccc1)c1ccccc1 [proadifen]
Mouse hepatocytes [3]
  effect on cyclophosphamide-induced LDH leakage: abolished the cyclophosphamide-induced increase in LDH leakage

## c1ccc(Nc2ccccc2)cc1 [diphenylamine]
Mouse hepatocytes [2]; [14]
  EC50: 3 ± 1.2 µM

## NNc1cccc2ccccc12 [naphthylhydrazine]
Mouse hepatocytes [2]; [14]
  EC50: 7 ± 0.19 µM

## Nc1ccccc1O [o-aminophenol]
Mouse hepatocytes [2]; [14]
  EC50: 18 ± 3.2 µM

## NNc1nccc2ccccc12 [hydrazinoisoquinoline, 1-hydrazinoisoquinoline]
Mouse hepatocytes [2]; [14]
  EC50: 6 ± 0.14 µM

## O=P1(N(CCCl)CCCl)NCCCO1 (stereo not shown) [cyclophosphamide]
Mouse hepatocytes [3]; 18-hr incubation
  concentration producing complete cell death: ≥ 250 µM

## NCc1ccccc1 [benzylamine]
Mouse hepatocytes [2]; [14]
  EC50: > 100 µM

## C=CCN [allylamine]
PC-12 cells; Rattus norvegicus, PC-12, 24 h, read-out: concentration producing 50% cell death
  EC50: ~45 µM

## 1,1-dimethylhydrazine
Mouse hepatocytes [1]; [14]
  EC50: > 0.1 mM

## c1ccc2c(c1)[nH]c1ccccc12 [carbazole]
Mouse hepatocytes [2]; [14]
  EC50: 40 ± 12 µM

## NNc1ccccn1 [hydrazinopyridine, 2-hydrazinopyridine]
Mouse hepatocytes [2]; [14]
  EC50: 40 ± 6.1 µM

## O=C(O)c1ccccc1O [salicylic acid]
Mouse hepatocytes [2]; [14]
  EC50: 59 ± 11 µM

## Sc1ccccc1 [thiophenol]
Mouse hepatocytes [2]; [14]
  EC50: > 100 µM

## NN(c1ccccc1)c1ccccc1 [1,1-diphenylhydrazine]
Mouse hepatocytes [2]; [14]
  EC50: 2 ± 0.01 µM
Mouse hepatocytes [4]
  protection against crotyl alcohol toxicity by other hydrazines: best protection

## C=C/C=N/Nc1nncc2ccccc12 [(1E)-acrylaldehyde 1-[1-phthalazinyl]-hydrazone]
Mouse liver
  immunohistochemical detection of hydralazine-stabilized acrolein adducts in liver sections: no immunorecognition was evident

## carnosine
[5]
  acrolein removed from solution: approximately 20%
[6]
  ability to sequester crotonaldehyde from solution: slightly more effective at removing crotonaidehyde from solution than pyridoxamine
Mouse hepatocytes [1]; [15]
  EC50: > 10 mM
Mouse hepatocytes [1]; [14]
  EC50: > 10 mM
acrolein-modified BSA
  adduct-breaking activity (acrolein-lysine adducts in BSA): lacked adduct-breaking potency

## NC1CCCCC1 [cyclohexylamine]
Mouse hepatocytes [2]; [14]
  EC50: > 100 µM

## NNc1ncnc2ccccc12 [hydrazinoquinazoline, 4-hydrazinoquinazoline]
Mouse hepatocytes [2]; [14]
  EC50: 10 ± 0.05 µM

## NNc1ccc2ccccc2n1 [hydrazinoquinoline, 2-hydrazinoquinoline]
Mouse hepatocytes [2]; [14]
  EC50: 11 ± 0.44 µM

## C/C=C/CO [crotyl alcohol]
Mouse hepatocytes [4]; by 3 hours
  cell death induced: 100%

## CCCCNC [N-methylbutylamine]
Mouse hepatocytes [2]; [14]
  EC50: 6 ± 2.2 µM

## c1ccc(Nc2ccc(Nc3ccccc3)cc2)cc1 [N,N′-Diphenyl-p- phenylenediamine, N,N′-Diphenyl-p-phenylenediamine]
Mouse hepatocytes [2]; [14]
  EC50: 4 ± 1.3 µM

## Nc1ccccc1 [aniline]
Mouse hepatocytes [2]; [14]
  EC50: 61 ± 20 µM

## c1ccc(NNc2ccccc2)cc1 [1,2-diphenylhydrazine]
Mouse hepatocytes [2]; [14]
  EC50: 19 ± 2.6 µM

## CON [methoxyamine]
Mouse hepatocytes [2]; [15]
  EC50: 9000 ± 1800 µM
Mouse hepatocytes [2]; [14]
  EC50: 9000 ± 1800 µM
[5]
  acrolein removed from solution: around 40%
acrolein-modified BSA
  adduct-breaking activity (acrolein-lysine adducts in BSA): effects were most evident at the top concentration studied

## NCCCC[C@H](N)C(=O)O [lysine]
[5]
  acrolein removed from solution: approximately 13%

## Nc1ccc(O)cc1 [p-aminophenol]
Mouse hepatocytes [2]; [14]
  EC50: 20 ± 8.5 µM

## CC(C)NC(C)C [diisopropylamine]
Mouse hepatocytes [2]; [14]
  EC50: 66 ± 15 µM

## Cc1ncc(CO)c(CN)c1O [pyridoxamine]
Mouse hepatocytes [2]; [15]
  EC50: > 10000 µM
Mouse hepatocytes [2]; [14]
  EC50: > 10000 µM
acrolein-modified BSA
  adduct-breaking activity (acrolein-lysine adducts in BSA): lacked adduct-breaking potency

## NNc1nncc2ccccc12 [hydralazine]
Mouse hepatocytes [7]
  cytoprotection against acute acrolein toxicity (LDH leakage): afford cytoprotection
Mouse hepatocytes [8]
  intensity of acrolein adduct-containing protein bands: much lower than that seen in control cells
Mouse hepatocytes [8]; listed as Hydralazine
  intensity of acrolein adduct-containing protein bands: decreasing levels of adducted proteins below control values
Mouse hepatocytes [9]; 100 μM allyl alcohol 25 min, then 5 to 50 μM hydralazine 30 min
  adduct-trapping in cell proteins: intense, concentration-dependent adduct-trapping
Mouse hepatocytes [9]; 37, 40 and 43 kDa proteins, hydralazine 4 to 10 μM, postadduction phase
  increase in band intensity (densitometry): 12- to-200 fold
Mouse hepatocytes [2]; [15]
  EC50: 8.3 ± 4 µM
Mouse hepatocytes [2]; [14]
  EC50: 18 ± 0.81 µM
[5]
  acrolein removed from solution: approximately 82%
acrolein-premodified BSA
  adduct-trapping in acrolein-premodified BSA: strong adduct-trapping
[10]
  acrolein-lysine adducts in RNase A, added at 30 minutes: abolished the levels of acrolein-lysine adducts
  effect on cross-linked RNase A, added at 120 minutes: incapable of cleaving crosslinked RNase A
  inhibition of RNase A cross-linking, added at 30 minutes: strongly inhibited formation of crosslinked RNase A
[11]
  peak plasma level: ~2 µM
PC-12 cells; 100 μM hydralazine + 80 or 100 μM allylamine
  adduct-trapping in PC12 cell proteins (Western blot): intense adduct-trapping reactions
PC-12 cells; 100 μM hydralazine, 20-100 μM allylamine
  protection against allylamine toxicity, added after 4 hour prior exposure: also protected
PC-12 cells; 100 μM hydralazine, 20-100 μM allylamine, overnight
  protection against allylamine toxicity, concurrent exposure: clear protection
Mouse liver; [16]
  elevation in signal intensity, 26 kDa protein: 2.6 fold
  elevation in signal intensity, 31 kDa protein: 2.4 fold
Mouse liver; 60 minutes after allyl alcohol 90 mg/kg + hydralazine 100 μmol/kg
  adduct-trapping in liver proteins (Western blot): strong adduct-trapping
Mouse liver
  immunohistochemical detection of hydralazine-stabilized acrolein adducts in liver sections: intense adduct-trapping
Mouse hepatocytes [1]
  attenuation of allyl alcohol toxicity (LDH leakage): strongly attenuated the toxicity of allyl alcohol
  protection against allyl alcohol toxicity (LDH leakage): inhibited this toxicity in a concentration dependent manner
acrolein-modified BSA; BSA + 1 mM acrolein 15-180 min, then 2 mM hydralazine 30 min
  time acrolein adducts retained susceptibility to cleavage by hydralazine: at least 30 minutes
acrolein-modified BSA
  adduct-breaking activity (acrolein-lysine adducts in BSA): diminished the intensity of acrolein adducted-BSA in a concentration-dependent manner
mice; allyl alcohol 90 mg/kg i.p. + hydralazine 300 μmol/kg i.p., 4 hours
  effect on allyl alcohol-induced changes in plasma SDH and GPT activities: almost totally abolishing
mice; [17]
  dose affording half-maximal protection against liver injury (GPT): 80 µmol/kg
  dose affording half-maximal protection against liver injury (SDH): 160 µmol/kg
mice; allyl alcohol 90 mg/kg, hepatoprotective doses up to 300 μmol/kg
  effect on hepatic GSH depletion caused by allyl alcohol: had no effect upon the hepatic GSH depletion
mice; allyl alcohol 100 mg/kg i.p. + hydralazine 100 μmol/kg i.p., 4 hours
  effect on plasma SDH levels: did not alter the levels of SDH
mice; allyl alcohol 100 mg/kg i.p. + hydralazine 200 and 300 μmol/kg i.p., 4 hours
  decrease in plasma SDH activity: 75 to 90%
mice; [18]
  hepatoprotection (plasma SDH), 30 minute delay: hepatoprotective efficacy was diminished
  hepatoprotection (plasma SDH), co-administered or 20 minute delay: strongly hepatoprotective
Mouse hepatocytes [12]; 1 mM pentenal, 3 hours
  protection against pentenal toxicity: protection was most efficient for pentenal toxicity
Mouse hepatocytes [12]; 1 mM propargyl alcohol, 3 hours, highest concentration used
  concentration achieving complete protection against propargyl alcohol toxicity: 100 µM
Mouse hepatocytes [12]; 10 mM MDA, 12 to 18 hours, highest concentration used
  concentration achieving complete protection against MDA toxicity: 100 µM
Mouse hepatocytes [3]
  effect on cyclophosphamide-induced LDH leakage: attenuated the toxicity of cyclophosphamide

## NNc1nnc(NN)c2ccccc12 [dihydralazine]
Mouse hepatocytes [13]
  attenuation of LDH leakage caused by smoke extract: completely attenuating LDH leakage at all concentrations examined
Mouse hepatocytes [2]; [15]
  EC50: 5.2 ± 1.5 µM
Mouse hepatocytes [2]; [14]
  EC50: 13 ± 0.29 µM
[5]
  acrolein removed from solution: ~92%
Mouse hepatocytes [4]; co-incubated up to 3 hours, 1-100 μM
  protection against crotyl alcohol toxicity (LDH leakage): approximately twice as effective as hydralazine
PC-12 cells; 45 μM allylamine, 24 hr, approximately 1 μM dihydralazine and higher, allylamine alone about 40% of controls
  cell viability restored to: approximately 80%
Mouse hepatocytes [1]
  attenuation of allyl alcohol toxicity (LDH leakage): strongly attenuated the toxicity of allyl alcohol
  protection against allyl alcohol toxicity (LDH leakage): approximately twice as protective as hydralazine
acrolein-modified BSA
  adduct-breaking activity (acrolein-lysine adducts in BSA): reducing adducts below detectable levels
Mouse hepatocytes [3]
  effect on cyclophosphamide-induced LDH leakage: attenuated the toxicity of cyclophosphamide

## C1CCC(NC2CCCCC2)CC1 [dicyclohexylamine]
Mouse hepatocytes [2]; [14]
  EC50: 59 ± 11 µM

## aminoguanidine
[5]
  acrolein removed from solution: approximately 4%
Mouse hepatocytes [1]; [15]
  EC50: > 10 mM
Mouse hepatocytes [1]; [14]
  EC50: > 10 mM
acrolein-modified BSA
  adduct-breaking activity (acrolein-lysine adducts in BSA): lacked adduct-breaking potency

## NNCc1ccccc1 [benzylhydrazine]
Mouse hepatocytes [2]; [14]
  EC50: 37 ± 1.8 µM
Mouse hepatocytes [4]
  protection against crotyl alcohol toxicity by other hydrazines: very poor cytoprotection
